Measurements reported in patent US11766470B2, “Manufacture, formulation and dosing of apraglutide” (VectivBio AG, priority 2020, dated 2023).
Square brackets hold non-standard residues; d marks the D form. Peptide text beside a SMILES is read from it. ξ: configuration not given here. Ile(3ξ) = CCC(C)[C@H](N)C(=O)O; Thr(3ξ) = CC(O)[C@H](N)C(=O)O; Nle = CCCC[C@H](N)C(=O)O

How the values were obtained:
[1] = Solubility, pH and isoelectric point of the peptide; format: physicochemical; conditions: purified water
[2] = test system: anti-apraglutide antibodies; test: Anti-apraglutide antibodies ELISA in serum, Phase 2 metabolic balance trial (Example 6); format: in vivo, human
Procedure: Blood samples for analysis of the plasma concentration of apraglutide and plasma concentration of fasting L-citrulline, a marker of enterocyte mass, were collected at baseline, during first and second injection (pre-dose and at sequential timepoints), four days after first injection and at the end of treatment. Blood sampling for apraglutide pharmacokinetics was also performed after the fourth and last injection covering 96 hours. […] Blood samples for anti-apraglutide antibodies were collected at baseline, at the end of treatment and at the 4-6 weeks follow-up visit. All eight patients tested negative for anti-apraglutide antibodies at baseline.
A fully validated ELISA method was used for the detection of anti-apraglutide antibodies in serum, following a three-tiered assay approach. In the first tier, anti-apraglutide antibodies present in samples and controls bonded to apraglutide immobilized on a microtiter plate. The bound anti-apraglutide antibodies were then detected with protein A/G and protein L. A sample with a signal above the validated screening cut-point was considered potentially positive and was then tested in the second tier, the confirmatory assay. For this, samples were pre-treated with an excess of apraglutide prior to testing them in the assay described above. […] Titers were then determined by serial dilution of all confirmed positive samples.

[3] = Population PK/PD model of plasma apraglutide and plasma citrulline (healthy volunteers and SBS patients)
Source text: Plasma citrulline was used as a pharmacodynamic (“PD”) marker to describe the effect of apraglutide. Similar to the pharmacokinetic (“PK”) model development, the PK/PD model was developed for the healthy individuals from studies GLY-101-2015 and TA799-002 only. For development of the PD model, the PD observations were fitted together with the PK observations using the final PK model with its structure, residual error-, covariates- and random effects-models. The starting model was a turnover model where plasma citrulline was constantly synthesized and degraded with the synthesis rate ksyn and the degradation rate kdeg. Plasma apraglutide stimulated citrulline synthesis via a sigmoid Emax relationship with the baseline citrulline level R0, the half-maximal effect at the concentration EC50, the maximal effect Emax, and a Hill coefficient gamma. It was assumed that citrulline turnover was in steady state such that citrulline synthesis was determined solely by citrulline baseline and degradation. The population PK/PD of plasma apraglutide was established with data from two studies in healthy volunteers and two studies with SBS patients that tested doses between 2.5 and 50 mg SC.
The population PK/PD model was used to predict plasma apraglutide exposure and plasma citrulline trough concentration-time profiles with and without inter-individual variability for individuals with body weights between 40 and 120 kg receiving weekly doses of 2.5, 5, or 10 mg SC. […] Apraglutide exposure for body weights between 40 and 120 kg and apraglutide SC doses of 2.5, 5, or 10 mg was compared to post-hoc exposure estimates of SBS patients. Bracketing at a body weight of 50 kg between doses of 2.5 and 5 mg was simulated.
Plasma citrulline was described by a turnover model and maximal PD effect model.

[4] = Phase I trial, single subcutaneous 5 mg dose in subjects with severe renal impairment vs normal renal function (Example 10), pharmacokinetics; format: in vivo, human; conditions: for Geometric mean ratio for AUCinf, severe renal impairment vs normal renal function / Geometric mean ratio for Cmax, severe renal impairment vs normal renal function: single SC 5 mg; for Geometric Mean Ratio of AUCinf / Geometric Mean Ratio of Cmax: single subcutaneous dose 5 mg apraglutide, severe renal impairment (Cohort 1) vs normal renal function (Cohort 2)
Procedure: The following non-limiting example describes a Phase I clinical trial in which subjects with normal and impaired kidney function are treated with the apraglutide formulations of the present disclosure. This Phase I clinical trial investigates the pharmacokinetics and safety of a single subcutaneous dose of 5 mg apraglutide in subjects with varying degrees of renal function. The renal function is calculated by the estimated glomerular filtration rate (eGFR) according to the Chronic Kidney Disease Epidemiology (CKD-EPI) Creatinine Equation.
The trial is a two-stage, open label, multi-center, non-randomized, Phase I trial. In Part 1 of the trial, 8 subjects with severe renal impairment (Cohort 1) and 6 subjects with normal renal function (Cohort 2) will be administered a single dose 5 mg apraglutide of the present disclosure. In Part 2 of the trial, 8 subjects with moderate renal impairment (Cohort 3) and 8 subjects with mild renal impairment (Cohort 4) will be administered a single dose 5 mg apraglutide of the present disclosure. Subjects will be enrolled if the geometric mean ratio (GMR) of AUCinf or AUClast for the severe renal impairment group compared to the control group is ≥2.
Patient eligibility is assessed during a screening visit. The main inclusion criteria are: • 1. All Participants • a. Age between 18 and 75 years inclusive • b. Subjects who are willing and able to comply with the study procedures • c. Subjects able to understand and willing to sign the informed consent • d. Body mass index (BMI) of ≥17.5 to ≤40 kg/m2; and a total body weight of >50 kg (110 lb). • e. […] Sterilized or infertile or postmenopausal females. • f. […] Healthy participants • a. No clinically relevant abnormalities (medical history, vital signs, ECG, safety labs) • b. eGFR measured by CKD-EPI≥90 mL/min/1.73 m2 at two screening visits • c. […] Participants with impaired renal function • a. Severe renal impairment: eGFR<30 mL/min/1.73 m2, but not requiring hemodialysis • b. Moderate renal impairment: eGFR≥30 mL/min/1.73 m2 and <60 mL/min/1.73 m2 • c. Mild renal impairment: eGFR≥60 and <90 mL/min/1.73 m2
Primary endpoint efficacy assessments will be performed at 240 hours after single dose. […] Secondary endpoint efficacy assessments will be performed at 240 hours, 7 days, 14 days, and 28 days. Primary and secondary endpoints will be evaluated across all subjects.
The secondary endpoints to be evaluated, include, but are not limited to: • 1. Area under the concentration-time curve up to the last measurable concentration from time 0 to 7 days (AUC0-7days). Samples collected over 168 hours after single dose • 2. Time to maximum concentration (Tmax). Samples collected over 240 hours after single dose • 3. Terminal elimination rate constant. Samples collected over 240 hours after single dose • 4. Terminal elimination half-life. Samples collected over 240 hours after single dose • 5. Apparent clearance after extravascular administration (CL/F). Samples collected over 240 hours after single dose • 6. Apparent volume of distribution after extravascular administration (Vz/F). Samples collected over 240 hours after single dose • 7. Number of participants with adverse events or adverse events of special interest at days 14-28 • 8. Clinically significant change from baseline in vital signs at days 14-28 • 9. Clinically significant change from baseline in recorded triplicate 12-lead ECG at days 14-28 • 10. Number of participants who experience a clinically significant change from baseline in clinical laboratory assessments at days 14-28
The plasma concentration of apraglutide after administration of a single subcutaneous dose of 5 mg apraglutide was monitored over a period of 240 hours in both healthy subjects (Cohort 2) and subjects with severe CKD (Cohort 1) and is presented in FIG. 29.
Two outliers were identified (one in each Cohort) when analyzing the individual apraglutide plasma concentration curves. […]

[5] = cohort without the two outliers

CCCC[C@H](NC(=O)[C@H](CCC(=O)O)NC(=O)[C@H](CC(=O)O)NC(=O)[C@H](CO)NC(=O)[C@H](Cc1ccccc1)NC(=O)[C@H](CO)NC(=O)CNC(=O)[C@H](CC(=O)O)NC(=O)CNC(=O)[C@@H](N)Cc1c[nH]cn1)C(=O)N[C@H](Cc1ccccc1)C(=O)N[C@H](C(=O)N[C@H](C(=O)N[C@@H](CC(C)C)C(=O)N[C@@H](CC(=O)O)C(=O)N[C@@H](CC(C)C)C(=O)N[C@@H](CC(C)C)C(=O)N[C@@H](C)C(=O)N[C@@H](C)C(=O)N[C@@H](CCCNC(=N)N)C(=O)N[C@@H](CC(=O)O)C(=O)N[C@@H](Cc1ccccc1)C(=O)N[C@H](C(=O)N[C@@H](CC(N)=O)C(=O)N[C@@H](Cc1c[nH]c2ccccc12)C(=O)N[C@@H](CC(C)C)C(=O)N[C@H](C(=O)N[C@@H](CCC(N)=O)C(=O)N[C@H](C(=O)N[C@@H](CCCCN)C(=O)N[C@H](C(=O)N[C@H](C(=O)N[C@@H](CC(=O)O)C(N)=O)C(C)O)C(C)CC)C(C)O)C(C)CC)C(C)CC)C(C)CC)C(C)O (stereo partly drawn) [apraglutide, L-histidyl-glycyl-L-aspartyl-glycyl-L-seryl-L-phenylalanyl-L-seryl-L-aspartyl-L-glutamyl-L-norleucyl-D-phenylalanyl-L-threonyl-Lisoleucyl-L-leucyl-L-aspartyl-L-leucyl-L-leucyl-L-alanyl-L-alanyl-L-arginyl-L-aspartyl-L-phenylalanyl-L-isoleucyl-L-asparaginyl-Ltryptophanyl-L-leucyl-L-isoleucyl-L-glutaminyl-L-threonyl-L-lysyl-L-isoleucyl-L-threonyl-Laspartic acid amide] (H-HGDGSFSDE[Nle][dF][Thr(3ξ)][Ile(3ξ)]LDLLAARDF[Ile(3ξ)]NWL[Ile(3ξ)]Q[Thr(3ξ)]K[Ile(3ξ)][Thr(3ξ)]D-NH2)
solubility [1]: > 100 mg/mL
Patients who developed anti-apraglutide antibodies ([2]; during the trial, patient with SBS-IF): One
Effects of anti-apraglutide antibodies on PK profile, pharmacodynamic response, adverse events ([2]; in vivo): No effects of anti-apraglutide antibodies were detected
Body weight coefficient on clearance βC1/F/B,W [3]: 1.8
Dose at which citrulline saturation appears [3]: 5 mg
Dose coefficient on zero-order absorption duration βTk0,Dose [3]: 0.249
Half-life, population PK estimate [3]: 1.3 days
Maximal effect (Emax) on citrulline synthesis [3]: 0.626
Central volume of distribution, population PK estimate ([3]; 70-kg individual, 5 mg SC): 31.5 L
Clearance, population PK estimate ([3]; 70-kg individual, 5 mg SC): 16.8 L/day
Volume of distribution, population PK/PD model estimate ([3]; 70-kg individual, 5 mg SC): 31.3 L
Half-maximal effective apraglutide concentration (EC50) on plasma citrulline ([3]; plasma concentration, Emax turnover model): 13.7 ng/mL
Geometric mean ratio for AUCinf, severe renal impairment vs normal renal function ([4]; entire subject population): 0.614
Geometric mean ratio for Cmax, severe renal impairment vs normal renal function ([4]; entire subject population): 0.572
Geometric mean ratio for AUCinf, severe renal impairment vs normal renal function ([4]; outlier subjects removed): 0.849
Geometric mean ratio for Cmax, severe renal impairment vs normal renal function ([4]; outlier subjects removed): 0.774
Geometric Mean Ratio of AUCinf [4, 5]: 0.849
Geometric Mean Ratio of Cmax [4, 5]: 0.774
Geometric Mean Ratio of AUCinf ([4]; whole cohort): 0.614
Geometric Mean Ratio of Cmax ([4]; whole cohort): 0.572
